Test results reported in patent US20210181179A1, “DIAGNOSIS AND TREATMENT OF IMMUNOTHERAPY-INDUCED NEUROTOXICITY” (MEMORIAL SLOAN KETTERING CANCER CENTER, priority 2018, published 2021).

Columns and labels:
KARPAS231 (B-ALL) = assay: Net production of TRP metabolites in media samples, KARPAS231; type: cell-based
ALL3.1 (B-ALL) = assay: Net production of TRP metabolites in media samples, ALL3.1; type: cell-based
RS4; 11 (B-ALL) = assay: Net production of TRP metabolites in media samples, RS4; 11; type: cell-based
HCN2 (cortical neuron) = assay: Net production of TRP metabolites in media samples, HCN2; type: cell-based
CCF-STTG1 (astrocytoma) = assay: Net production of TRP metabolites in media samples, CCF-STTG1; type: cell-based, human
Text: (§1) Under physiological conditions in the brain, kynurenine metabolism is driven by microglial cells and astrocytes with preferential production of QUIN and KA respectively. […] This may have been due to T cells producing cytokines and/or intermediate metabolites that are further metabolized to QUIN by the cells. In order to identify specific factors that may lead to tryptophan-kynurenine pathway up-regulation for QUIN production, we tested a panel of cytokine and chemokines implicated in NTX and CRS. […] We initially evaluated the panel of the select factors individually (FIGS. 16 A-B). We selected several cytokines based on their effect on rate-limiting enzymes for QUIN production. These included IFNγ, TNF, […], CXCL10 and […]. These enzymes were selected based on their regulation of key enzymes, KMO and KYNU, which may lead to supraphysiological accumulation of QUIN. These factors were further evaluated, individually or in combination, on astrocytoma, microglial, and primary monocyte-derived macrophages for mRNA levels of kynurenine pathway enzymes and kynurenine metabolites production (FIG. 17).

SUP-B15 (B-ALL) = assay: Net production of TRP metabolites in media samples, SUP-B15; type: cell-based
BV173 (B-ALL) = assay: Net production of TRP metabolites in media samples, BV173; type: cell-based
THP-1 (monocyte) = assay: Net production of TRP metabolites in media samples, THP-1; type: cell-based
HMC3 (microglia) = assay: Net production of TRP metabolites in media samples, HMC3; type: cell-based, human
Text: as §1

DOAY (medulloblastoma) = assay: Net production of TRP metabolites in media samples, DOAY; type: cell-based
CCRF-SB (B-ALL) = assay: Net production of TRP metabolites in media samples, CCRF-SB; type: cell-based

With Il6: cytokine as the substance, how does the “Net production of TRP metabolites in media samples: 3-HK” value (shortened to “Net production … 3-HK”) (KARPAS231 (B-ALL)) read?
Its value is 1.48 ± 2.2.

And the “Net production of TRP metabolites in media samples: HAA” value (“Net production … HAA” for short) (KARPAS231 (B-ALL))?
The value was 8.68 ± 1.5.

And the “Net production of TRP metabolites in media samples: KA” value (shortened to “Net production … KA”) (KARPAS231 (B-ALL))?
Its value is −7.58 ± 4.2.

And the “Net production of TRP metabolites in media samples: KYN” value (shortened to “Net production … KYN”) (KARPAS231 (B-ALL))?
The value was −77.44 ± 27.4.

What about the “Net production of TRP metabolites in media samples: QUIN” value (“Net production … QUIN” below) (KARPAS231 (B-ALL)) of the same substance?
The value was −37.78 ± 29.5.

What about the “Net production … 3-HK” value (ALL3.1 (B-ALL)) of the same substance?
The value was 1.48 ± 5.3.

What about the “Net production … KA” value (ALL3.1 (B-ALL)) of the same substance?
The value was −2.36 ± 6^.

And the “Net production … KYN” value (ALL3.1 (B-ALL))?
The value was 95.16 ± 123.3.

And the “Net production … QUIN” value (ALL3.1 (B-ALL))?
Its value is 8.66 ± 36.5.

What about the “Net production … 3-HK” value (RS4; 11 (B-ALL)) of the same substance?
The value was −1.36 ± 1.1.

What about the “Net production … KA” value (RS4; 11 (B-ALL)) of the same substance?
Its value is −6.52 ± 2.3.

What about the “Net production … KYN” value (RS4; 11 (B-ALL)) of the same substance?
The value was −3.36 ± 38.7.

And the “Net production … QUIN” value (RS4; 11 (B-ALL))?
The value was 16.28 ± 63.8.

What about the “Net production … 3-HK” value (HCN2 (cortical neuron)) of the same substance?
Its value is 4.96 ± 0.8.

And the “Net production … HAA” value (HCN2 (cortical neuron))?
The value was 5.48 ± 0.8.

And the “Net production … KA” value (HCN2 (cortical neuron))?
The value was 0.86 ± 2.1.

What about the “Net production … KYN” value (HCN2 (cortical neuron)) of the same substance?
The value was −2.08 ± 19^.

What about the “Net production … QUIN” value (HCN2 (cortical neuron)) of the same substance?
Its value is 0.94 ± 12.9.

And the “Net production … 3-HK” value (CCF-STTG1 (astrocytoma))?
Its value is −8.16 ± 2.2.

What about the “Net production … HAA” value (CCF-STTG1 (astrocytoma)) of the same substance?
The value was 11 ± 0.4.

And the “Net production … KA” value (CCF-STTG1 (astrocytoma))?
The value was 5.16 ± 1.1.

And the “Net production … KYN” value (CCF-STTG1 (astrocytoma))?
The value was 4385.94 ± 43.3.

What about the “Net production … QUIN” value (CCF-STTG1 (astrocytoma)) of the same substance?
Its value is 17.06 ± 11^.

And the “Net production … 3-HK” value (SUP-B15 (B-ALL))?
Its value is 16.58 ± 13.5.

What about the “Net production … HAA” value (SUP-B15 (B-ALL)) of the same substance?
Its value is 6.44 ± 0.8.

And the “Net production … KA” value (SUP-B15 (B-ALL))?
Its value is −6.4 ± 3.

And the “Net production … KYN” value (SUP-B15 (B-ALL))?
The value was 309 ± 182.

What about the “Net production … QUIN” value (SUP-B15 (B-ALL)) of the same substance?
Its value is −65.6 ± 16^.

What about the “Net production … 3-HK” value (BV173 (B-ALL)) of the same substance?
The value was 12.32 ± 11.8.

What about the “Net production … KA” value (BV173 (B-ALL)) of the same substance?
Its value is −3 ± 3.

What about the “Net production … KYN” value (BV173 (B-ALL)) of the same substance?
Its value is 244.92 ± 172.4.

And the “Net production … QUIN” value (BV173 (B-ALL))?
Its value is 13.06 ± 15.6.

And the “Net production … 3-HK” value (THP-1 (monocyte))?
Its value is 0.5 ± 1.2.

What about the “Net production … KA” value (THP-1 (monocyte)) of the same substance?
Its value is −6.74 ± 6.2.

What about the “Net production … KYN” value (THP-1 (monocyte)) of the same substance?
The value was 176.36 ± 33.

What about the “Net production … QUIN” value (THP-1 (monocyte)) of the same substance?
The value was −5.14 ± 52.9.

And the “Net production … 3-HK” value (HMC3 (microglia))?
The value was 8.44 ± 18.

And the “Net production … HAA” value (HMC3 (microglia))?
The value was 0.12 ± 2.4.

And the “Net production … KA” value (HMC3 (microglia))?
Its value is 6.3 ± 3.8.

And the “Net production … KYN” value (HMC3 (microglia))?
The value was 545.08 ± 313^.

What about the “Net production … QUIN” value (HMC3 (microglia)) of the same substance?
The value was 61.04 ± 23.7.

And the “Net production … 3-HK” value (DOAY (medulloblastoma))?
Its value is −11.68 ± 1.2.

And the “Net production … HAA” value (DOAY (medulloblastoma))?
The value was 11.14 ± 0.8.

And the “Net production … KA” value (DOAY (medulloblastoma))?
The value was 6.16 ± 4.2.

And the “Net production … KYN” value (DOAY (medulloblastoma))?
Its value is 41.5 ± 21.6.

And the “Net production … QUIN” value (DOAY (medulloblastoma))?
The value was 29.66 ± 29.4.

And the “Net production … 3-HK” value (CCRF-SB (B-ALL))?
The value was 27.64 ± 22.5.

And the “Net production … HAA” value (CCRF-SB (B-ALL))?
The value was 9.34 ± 2.1.

What about the “Net production … KA” value (CCRF-SB (B-ALL)) of the same substance?
The value was −6.88 ± 1.5.

What about the “Net production … KYN” value (CCRF-SB (B-ALL)) of the same substance?
The value was 438.12 ± 308.6.

And the “Net production … QUIN” value (CCRF-SB (B-ALL))?
Its value is −51.14 ± 13 ^.
